Test results from patent publication US9732087B2, “Diamino-pyridine, pyrimidine, and pyridazine modulators of the histamine H4 receptor” (JANSSEN PHARMACEUTICA NV, priority 2008, dated 2017).

Biological target: human H4 receptor (Homo sapiens (Human), UniProt Q9H3N8)
Assay: Binding assay on recombinant human histamine H4 receptor ([3H]histamine competition, SK-N-MC cell membranes)
Conditions: membranes harvested with cell harvester; [3H]histamine 10 nM; average of results; read-out: Cell Harvester Ki
Method in brief: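 Membranes from SK-N-MC cells stably or transiently transfected with human H4 receptor, prepared by homogenization and 30,000 g centrifugation in Tris/EDTA. Bound [3H]histamine separated by rapid filtration on PEI-treated GF/C filters, washed with ice-cold Tris/EDTA, counted by scintillation. '>' values denote highest concentration tested.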

Row | Structure (SMILES) | Ki
1 | N[C@@H]1CCN(c2cnnc(NCC3CCCC3)c2)C1 [Example 359, 5-[(3R)-3-Aminopyrrolidin-1-yl]-N-(cyclopentylmethyl)pyridazin-3-amine] | 161 nM
2 | c1nnc(NCC2CCCC2)cc1N1C[C@H]2CCN[C@H]2C1 [Example 360, N-(Cyclopentylmethyl)-5-[(3aR,6aR)-hexahydropyrrolo[3,4-b]pyrrol-5(1H)-yl]pyridazin-3-amine] | 1170 nM
3 | c1nnc(NCC2CC2)cc1N1CCNCC1 [Example 361, N-(Cyclopropylmethyl)-5-piperazin-1-ylpyridazin-3-amine] | 1230 nM
4 | c1ccc(CCNc2cc(N3CCNCC3)cnn2)cc1 [Example 362, N-(2-Phenylethyl)-5-piperazin-1-ylpyridazin-3-amine] | 2210 nM
5 | c1nnc(NCC2CCCC2)cc1N1CCNCC1 [Example 363, N-(Cyclopentylmethyl)-5-piperazin-1-ylpyridazin-3-amine] | 4730 nM
6 | N[C@@H]1CCN(c2cnnc(NCCc3ccccc3)c2)C1 [Example 364, 5-[(3R)-3-Aminopyrrolidin-1-yl]-N-(2-phenylethyl)pyridazin-3-amine] | 1740 nM
7 | N[C@@H]1CCN(c2cnnc(NC3CCCCC3)c2)C1 [Example 365, 5-[(3R)-3-Aminopyrrolidin-1-yl]-N-cyclohexylpyridazin-3-amine] | 508 nM
8 | CC(C)(CO)CNc1cc(N2CCNCC2)cnn1 [Example 366, 2,2-Dimethyl-3-[(5-piperazin-1-ylpyridazin-3-yl)amino]propan-1-ol] | > 10000 nM
9 | CCCCNc1cc(N2CC[C@@H](N)C2)cnn1 [Example 367, 5-[(3R)-3-Aminopyrrolidin-1-yl]-N-butylpyridazin-3-amine] | 867 nM
10 | N[C@@H]1CCN(c2cnnc(NC3CCCC3)c2)C1 [Example 368, 5-[(3R)-3-Aminopyrrolidin-1-yl]-N-cyclopentylpyridazin-3-amine] | 290 nM
11 | N[C@@H]1CCN(c2cnnc(NCC3CC3)c2)C1 [Example 369, 5-[(3R)-3-Aminopyrrolidin-1-yl]-N-(cyclopropylmethyl)pyridazin-3-amine] | 619 nM
12 | CNC1CN(c2cnnc(NCC3CCCC3)c2)C1 [Example 370, N-(Cyclopentylmethyl)-5-[3-(methylamino)azetidin-1-yl]pyridazin-3-amine] | 224 nM
13 | CC(C)(C)CNc1cc(N2CC[C@@H](N)C2)cnn1 [Example 371, 5-[(3R)-3-Aminopyrrolidin-1-yl]-N-(2,2-dimethylpropyl)pyridazin-3-amine] | 130 nM
14 | CN[C@@H]1CCN(c2cnnc(NCCc3ccccc3)c2)C1 [Example 372, 5-[(3R)-3-(Methylamino)pyrrolidin-1-yl]-N-(2-phenylethyl)pyridazin-3-amine] | 139 nM
15 | CN[C@H]1CCN(c2cnnc(N[C@H](C)C3CCCCC3)c2)C1 [Example 373, N-[(1R)-1-Cyclohexylethyl]-5-[(3S)-3-(methylamino)pyrrolidin-1-yl]pyridazin-3-amine] | 143 nM
16 | CN[C@H]1CCN(c2cnnc(NCC3CC4CCC3C4)c2)C1 (stereo partly drawn) [Example 374, N-(Bicyclo[2.2.1]hept-2-ylmethyl)-5-[(3S)-3-(methylamino)pyrrolidin-1-yl]pyridazin-3-amine] | 298 nM
17 | CN[C@@H]1CCN(c2cnnc(NCC3CC4CCC3C4)c2)C1 (stereo partly drawn) [Example 375, N-(Bicyclo[2.2.1]hept-2-ylmethyl)-5-[(3R)-3-(methylamino)pyrrolidin-1-yl]pyridazin-3-amine] | 66.8 nM
18 | CN[C@H]1CCN(c2cnnc(NCCOC)c2)C1 [Example 376, N-(2-Methoxyethyl)-5-[(3S)-3-(methylamino)pyrrolidin-1-yl]pyridazin-3-amine] | > 10000 nM
19 | CN[C@@H]1CCN(c2cnnc(NC3CC3)c2)C1 [Example 377, N-Cyclopropyl-5-[(3R)-3-(methylamino)pyrrolidin-1-yl]pyridazin-3-amine] | 699 nM
20 | CN[C@@H]1CCN(c2cnnc(N[C@H](C)C3CCCCC3)c2)C1 [Example 378, N-[(1R)-1-Cyclohexylethyl]-5-[(3R)-3-(methylamino)pyrrolidin-1yl]pyridazin-3-amine] | 6.16 nM
21 | CN[C@H]1CCN(c2cnnc(NCC(C)C)c2)C1 [Example 379, 5-[(3S)-3-(Methylamino)pyrrolidin-1-yl]-N-(2-methylpropyl)pyridazin-3-amine] | 296 nM
22 | CN[C@H]1CCN(c2cnnc(NCC3CCCC3)c2)C1 [Example 382, N-(Cyclopentylmethyl)-5-[(3S)-3-(methylamino)pyrrolidin-1-yl]pyridazin-3-amine] | 138 nM
23 | CN1CCN(c2cnnc(NCC(C)(C)C)c2)CC1 [Example 404, 5-(4-methylpiperazin-1-yl)-N-neopentylpyridazin-3-amine dihydro chloride] | 4300 nM
24 | CN1CCN(c2cnnc(NC3CCCC3)c2)CC1 [Example 407, N-Cyclopentyl-5-(4-methylpiperazin-1-yl)pyridazin-3-amine] | 824 nM

Other lines, results leading:

Row | Ki | Structure (SMILES)
25 | 596 nM | CN[C@H]1CCN(c2cnnc(NCC(C)(C)CO)c2)C1 [Example 383, 2,2-Dimethyl-3-({5-[(3S)-3-(methylamino)pyrrolidin-1-yl]pyridazin-3-yl}amino)propan-1-ol]
26 | 2000 nM | CN[C@@H]1CCN(c2cnnc(NCc3ccc(C)cc3)c2)C1 [Example 384, 5-[(3R)-3-(Methylamino)pyrrolidin-1-yl]-N-(4-methylbenzyl)pyridazin-3-amine]
27 | 259 nM | CN[C@H]1CCN(c2cnnc(NCC(C)(C)C)c2)C1 [Example 385, N-(2,2-Dimethylpropyl)-5-[(3S)-3-(methylamino)pyrrolidin-1-yl]pyridazin-3-amine]
28 | 284 nM | CN[C@@H]1CCN(c2cnnc(NCCCC(F)(F)F)c2)C1 [Example 386, 5-[(3R)-3-(Methylamino)pyrrolidin-1-yl]-N-(4,4,4-trifluorobutyl)pyridazin-3-amine]
29 | 835 nM | CN[C@@H]1CCN(c2cnnc(NCc3ccoc3)c2)C1 [Example 387, N-(Furan-3-ylmethyl)-5-[(3R)-3-(methylamino)pyrrolidin-1-yl]pyridazin-3-amine]
30 | 293 nM | CN[C@@H]1CCN(c2cnnc(NCC3CCC4CC3C4(C)C)c2)C1 (stereo partly drawn) [Example 388, N-[(6,6-Dimethylbicyclo[3.1.1]hept-2-yl)methyl]-5-[(3R)-3-(methylamino)pyrrolidin-1-yl]pyridazin-3-amine]
31 | 1750 nM | CN[C@H]1CCN(c2cnnc(NCCCC(F)(F)F)c2)C1 [Example 389, 5-[(3S)-3-(Methylamino)pyrrolidin-1-yl]-N-(4,4,4-trifluorobutyl)pyridazin-3-amine]
32 | > 10000 nM | CN[C@@H]1CCN(c2cnnc(NCCCO)c2)C1 [Example 390, 3-({5-[(3R)-3-(Methylamino)pyrrolidin-1-yl]pyridazin-3-yl}amino)propan-1-ol]
33 | 36.5 nM | CN[C@@H]1CCN(c2cnnc(NCC3CCCCC3)c2)C1 [Example 391, N-(Cyclohexylmethyl)-5-[(3R)-3-(methylamino)pyrrolidin-1-yl]pyridazin-3-amine]
34 | 1810 nM | CN[C@@H]1CCN(c2cnnc(NCCOC)c2)C1 [Example 393, N-(2-Methoxyethyl)-5-[(3R)-3-(methylamino)pyrrolidin-1-yl]pyridazin-3-amine]
35 | 634 nM | CN[C@H]1CCN(c2cnnc(NCC3CCC4CC3C4(C)C)c2)C1 (stereo partly drawn) [Example 394, N-[(6,6-Dimethylbicyclo[3.1.1]hept-2-yl)methyl]-5-[(3S)-3-(methylamino)pyrrolidin-1-yl]pyridazin-3-amine]
36 | 1900 nM | CN[C@H]1CCN(c2cnnc(NC3CC3)c2)C1 [Example 395, N-Cyclopropyl-5-[(3S)-3-(methylamino)pyrrolidin-1-yl]pyridazin-3-amine]
37 | 380 nM | CN[C@H]1CCN(c2cnnc(NCC3CCCCC3)c2)C1 [Example 396, N-(Cyclohexylmethyl)-5-[(3S)-3-(methylamino)pyrrolidin-1-yl]pyridazin-3-amine]
38 | 353 nM | CN[C@@H]1CCN(c2cnnc(NCc3ccccc3)c2)C1 [Example 397, N-Benzyl-5-[(3R)-3-(methylamino)pyrrolidin-1-yl]pyridazin-3-amine]
39 | 347 nM | CN[C@@H]1CCN(c2cnnc(NCc3ccc(F)cc3)c2)C1 [Example 398, N-(4-Fluorobenzyl)-5-[(3R)-3-(methylamino)pyrrolidin-1-yl]pyridazin-3-amine]
40 | 3940 nM | CN[C@H]1CCN(c2cnnc(NCc3ccc(F)cc3)c2)C1 [Example 399, N-(4-Fluorobenzyl)-5-[(3S)-3-(methylamino)pyrrolidin-1-yl]pyridazin-3-amine]
41 | 2150 nM | CN[C@@H]1CCN(c2cnnc(NCc3ccc(OC)cc3)c2)C1 [Example 400, N-(4-Methoxybenzyl)-5-[(3R)-3-(methylamino)pyrrolidin-1-yl]pyridazin-3-amine]
42 | 79.3 nM | CN[C@@H]1CCN(c2cnnc(N[C@H](C)c3ccccc3)c2)C1 [Example 401, 5-[(3R)-3-(Methylamino)pyrrolidin-1-yl]-N-[(1R)-1-phenylethyl]pyridazin-3-amine]
43 | > 10000 nM | CN[C@H]1CCN(c2cnnc(NCCCO)c2)C1 [Example 403, 3-({5-[(3S)-3-(Methylamino)pyrrolidin-1-yl]pyridazin-3-yl}amino)propan-1-ol]
44 | > 10000 nM | COCCNc1cc(N2CCN(C)CC2)cnn1 [Example 405, N-(2-Methoxyethyl)-5-(4-methylpiperazin-1-yl)pyridazin-3-amine]
45 | 178 nM | CN1CCN(c2cnnc(NC3CC4CCC3C4)c2)CC1 (centres unmarked) [Example 406, N-Bicyclo[2.2.1]hept-2-yl-5-(4-methylpiperazin-1-yl)pyridazin-3-amine]
46 | > 10000 nM | CN1CCN(c2cnnc(NCC3CCCC3)c2)CC1 [Example 408, N-(Cyclopentylmethyl)-5-(4-methylpiperazin-1-yl)pyridazin-3-amine]
47 | > 10000 nM | CN1CCN(c2cnnc(NCCc3ccccc3)c2)CC1 [Example 409, 5-(4-Methylpiperazin-1-yl)-N-(2-phenylethyl)pyridazin-3-amine]
